According to patent US20220348590A1, “CYCLOOXYGENASE-2 INHIBITORS AND USES THEREOF” (The Board Institute, Inc., priority 2019, published 2022):
Read-outs that look alike come from different tables or passages of the source.

Assays:
[1] = mouse brain protein binding (BPB) assay; type: in vitro ADME
Method: (§1) We have adapted a previously reported cyclooxygenase enzymatic assay utilizing LCMS quantification of PGE2 as the product of COX-1 and COX2 catalyzed conversion of arachidonic acid to evaluate the binding properties of newly synthesized ligands [Cao, 2011]. These optimized and miniaturized (384-well plates) LCMS-based COX-1 and COX2 enzymatic assays enabled us to quickly evaluate newly synthesized ligands for COX2 binding affinity and selectivity vs COX-1. Using a shorter ligand-enzyme incubation time in the LCMS assay (2 minutes vs 10 minutes) also permitted us to prioritize ligands with faster binding kinetics. Considering the relatively slow on-rate kinetics of known coxibs, due to their 3-step binding mechanism [Marnett, 2009], we believe that optimizing this critical parameter will be key to the successful development of a COX2 PET tracer. Using these enzymatic assays, we have evaluated>200 newly synthesized ligands against COX2 and >20 ligands against COX-1. Another critical property necessary for a good PET radiotracer is to have low non-specific binding (NSB) to increase the free fraction and maximize the signal to noise ratio. This property can be evaluated using in-vitro protein binding assays, and we have now evaluated>50 newly synthesized ligands in mouse, rat and human plasma protein binding (PPB) assays as well as >15 ligands in a mouse brain protein binding (BPB) assay.

[2] = molecular target: T1, ovine COX-1 (oCOX-1) (Ovis aries, UniProt P05979); assay: LCMS-based COX-1 enzymatic inhibition assay (PGE2 quantification); type: biochemical
T1 construct: purchased Cayman Chemicals (Ann Arbor, Mich.)
T1 sequence (P05979 25-600): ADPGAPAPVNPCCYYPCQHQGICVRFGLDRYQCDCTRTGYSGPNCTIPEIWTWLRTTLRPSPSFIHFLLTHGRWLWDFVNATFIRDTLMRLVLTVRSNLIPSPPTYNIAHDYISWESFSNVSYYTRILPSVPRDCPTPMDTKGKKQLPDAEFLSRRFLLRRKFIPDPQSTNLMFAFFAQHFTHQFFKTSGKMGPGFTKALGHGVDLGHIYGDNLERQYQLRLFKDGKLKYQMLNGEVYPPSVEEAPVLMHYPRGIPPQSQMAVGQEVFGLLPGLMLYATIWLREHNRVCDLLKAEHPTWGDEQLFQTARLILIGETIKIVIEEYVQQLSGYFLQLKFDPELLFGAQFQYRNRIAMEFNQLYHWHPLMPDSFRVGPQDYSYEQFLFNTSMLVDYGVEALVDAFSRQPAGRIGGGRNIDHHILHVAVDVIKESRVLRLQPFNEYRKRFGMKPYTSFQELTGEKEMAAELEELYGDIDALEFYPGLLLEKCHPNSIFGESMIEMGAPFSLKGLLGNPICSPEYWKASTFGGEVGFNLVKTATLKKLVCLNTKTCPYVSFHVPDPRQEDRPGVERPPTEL
Method in brief: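 Ovine COX-1 (0.1 μg) or human recombinant COX2 (0.2 μg) in 100 mM Tris.HCl pH 8.0 with hematin and epinephrine, preincubated with inhibitor 10 min at 37 °C. Reaction with 5 μM arachidonic acid stopped after 2 min with HCl; PGE2 quantified by LC-MS-MS. IC50 from 12 concentrations in triplicate.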

[3] = mouse plasma protein binding (PPB) assay; type: in vitro ADME; conditions: average, read-out: Mouse Plasma Protein Binding % Bound Avg (converted)
Method: as §1

[4] = Rat Microsome Stability; type: in vitro ADME; conditions: rat microsomes
[5] = Human Plasma Protein Stability (% Remaining); type: in vitro ADME; conditions: average
[6] = tested on: MDR1; assay: MDR1-MDCKII permeability and efflux; type: in vitro ADME; conditions: dog, MDCK-MDR1; for Papp A→B: read-out: MDR1-MCKII Papp A-B; for Papp B→A: read-out: MDR1-MCKII Papp B-A
[7] = in-vitro protein binding: free fraction / fraction unbound, matrix and species not given; type: in vitro ADME; conditions: compared to MC1; comparator not always stated
Method: as §1

[8] = 10 minutes, readout pge2 area (counts), average LLE
[9] = 10 minutes, readout pge2/pge2d4 area ratio, average, read-out: COX1 10 minutes pge2/pge2d4 area ratio Avg. IC50
[10] = 10 minutes, readout pge2 area (counts), average, read-out: COX1 10 minutes pge2 area (counts) Avg. IC50
[11] = 10 minutes, readout pge2/pge2d4 area ratio, average LLE

Compound: COc1ccc(NCc2cccs2)nc1-c1ccc(S(C)(=O)=O)cc1 [Compound 17]
- fraction unbound [1]: 0.012
- COX1 10 minutes pge2 area (counts) Avg. LLE [2, 8]: 0.884
- fraction unbound [3]: 0.033
- Rat Microsome Stability % Remaining Avg [4]: 0.2%
- Human Plasma Protein Stability % Remaining Avg [5]: 95%

Compound: CS(=O)(=O)c1ccc(-c2cccc(NCc3ccco3)n2)cc1 [Compound 36]
- fraction unbound [1]: 0.019
- efflux ratio [6]: 1
- Papp A→B [6]: 68.5 ×10⁻⁶ cm/s
- Papp B→A [6]: 67.9 ×10⁻⁶ cm/s
- IC50 [2, 9]: 36.4 µM
- IC50 [2, 10]: 29.7 µM
- fraction unbound [3]: 0.118
- improvement in free fraction (fraction unbound) [7]: ~4 fold
- Rat Microsome Stability % Remaining Avg [4]: 11.6%
- Human Plasma Protein Stability % Remaining Avg [5]: 100%

Compound: CS(=O)(=O)c1ccc(-c2cccc(OCc3ccoc3)n2)cc1 [Compound 16]
- COX1 10 minutes pge2/pge2d4 area ratio Avg. LLE [2, 11]: 1.139
- IC50 [2, 9]: 39.9 µM
- COX1 10 minutes pge2 area (counts) Avg. LLE [2, 8]: 1.072
- IC50 [2, 10]: 46.5 µM
- fraction unbound [3]: 0.011
- Human Plasma Protein Stability % Remaining Avg [5]: 121%

Compound: CS(=O)(=O)c1ccc(-c2cc(F)cc(NCc3ccoc3)n2)cc1 [Compound 34]
- COX1 10 minutes pge2/pge2d4 area ratio Avg. LLE [2, 11]: 1.4613
- IC50 [2, 9]: 30.1 µM
- COX1 10 minutes pge2 area (counts) Avg. LLE [2, 8]: 1.484
- IC50 [2, 10]: 28.7 µM
- Human Plasma Protein Stability % Remaining Avg [5]: 100%

Compound: CS(=O)(=O)c1ccc(-c2cncc(NCc3cccs3)n2)cc1 [Compound 98]
- fraction unbound [1]: 0.02
- efflux ratio [6]: 1.7
- Papp A→B [6]: 49.7 ×10⁻⁶ cm/s
- Papp B→A [6]: 83.8 ×10⁻⁶ cm/s
- COX1 10 minutes pge2/pge2d4 area ratio Avg. LLE ([2]; 10 minutes, pge2/pge2d4 area ratio, head of this section not shown, inferred): 2.943
- COX1 10 minutes pge2 area (counts) Avg. LLE ([2]; 10 minutes, pge2 area (counts), head of this section not shown, inferred): 2.879
- IC50 ([2]; 10 minutes, pge2 area (counts), head of this section not shown, inferred, read-out: COX1 10 minutes pge2 area (counts) Avg. IC50): 10.7 µM
- IC50 [2, 9]: 9.89 µM
- improvement in free fraction (fraction unbound) [7]: 3 fold
- Rat Microsome Stability % Remaining Avg [4]: 20.3%

Compound: COc1ncc(NCc2ccoc2)nc1-c1ccc(S(C)(=O)=O)cc1 [Compound 44]
- efflux ratio [6]: 1.2
- Papp A→B [6]: 39.6 ×10⁻⁶ cm/s
- Papp B→A [6]: 47.2 ×10⁻⁶ cm/s
- IC50 [2]: 52 µM
- COX1 10 minutes pge2/pge2d4 area ratio Avg. LLE [2, 11]: 2.274
- COX1 10 minutes pge2 area (counts) Avg. LLE [2, 8]: 2.41
- IC50 [2, 10]: 38.1 µM
- fraction unbound [3]: 0.045
- Rat Microsome Stability % Remaining Avg [4]: 5.3%

Compound: Cc1occc1CNc1cccc(-c2ccc(S(C)(=O)=O)cc2)n1 [Compound 21]
- COX1 10 minutes pge2/pge2d4 area ratio Avg. LLE [2, 11]: 1.391
- IC50 [2, 9]: 28.7 µM
- COX1 10 minutes pge2 area (counts) Avg. LLE [2, 8]: 1.134
- Human Plasma Protein Stability % Remaining Avg [5]: 99%

Compound: CS(=O)(=O)c1ccc(-c2cccc(NCc3cccs3)n2)cc1 [Compound 24]
- IC50 [2, 9]: 34.7 µM
- IC50 [2, 10]: 33.4 µM
- fraction unbound [3]: 0.016
- Rat Microsome Stability % Remaining Avg [4]: 6.9%
- Human Plasma Protein Stability % Remaining Avg [5]: 100%

Compound: CS(=O)(=O)c1ccc(-c2ccc(F)c(NCc3ccoc3)n2)cc1 [Compound 33]
- COX1 10 minutes pge2/pge2d4 area ratio Avg. LLE [2, 11]: 1.418
- IC50 [2, 9]: 33.3 µM
- COX1 10 minutes pge2 area (counts) Avg. LLE [2, 8]: 1.362
- IC50 [2, 10]: 37.9 µM
- Human Plasma Protein Stability % Remaining Avg [5]: 100%

Compound: CS(=O)(=O)c1ccc(-c2cncc(OCc3cccs3)n2)cc1 [Compound 19]
- COX1 10 minutes pge2/pge2d4 area ratio Avg. LLE [2, 11]: 2.582
- IC50 [2, 9]: 10.4 µM
- COX1 10 minutes pge2 area (counts) Avg. LLE [2, 8]: 2.539
- IC50 [2, 10]: 10.9 µM
- fraction unbound [3]: 0.02
- Human Plasma Protein Stability % Remaining Avg [5]: 92.4%

Compound: CS(=O)(=O)c1ccc(-c2cc(F)cc(NCc3ccco3)n2)cc1 [Compound 14]
- COX1 10 minutes pge2/pge2d4 area ratio Avg. LLE [2, 11]: 1.4251
- IC50 [2, 9]: 40.3 µM
- COX1 10 minutes pge2 area (counts) Avg. LLE [2, 8]: 1.516
- IC50 [2, 10]: 32.7 µM
- fraction unbound [3]: 0.022
- Human Plasma Protein Stability % Remaining Avg [5]: 118%

Compound: CS(=O)(=O)c1ccc(-c2ccc(F)c(NCc3ccco3)n2)cc1 [Compound 15]
- IC50 [2]: 52 µM
- COX1 10 minutes pge2/pge2d4 area ratio Avg. LLE [2, 11]: 1.314
- COX1 10 minutes pge2 area (counts) Avg. LLE [2, 8]: 1.404
- IC50 [2, 10]: 34.4 µM
- Human Plasma Protein Stability % Remaining Avg [5]: 108%

Compound: COc1ncc(NCc2cccs2)nc1-c1ccc(S(C)(=O)=O)cc1 [Compound 29]
- IC50 [2]: 52 µM
- COX1 10 minutes pge2/pge2d4 area ratio Avg. LLE [2, 11]: 1.794
- COX1 10 minutes pge2 area (counts) Avg. LLE [2, 8]: 3.31
- IC50 [2, 10]: 0.0484 µM
- fraction unbound [3]: 0.025
- Rat Microsome Stability % Remaining Avg [4]: 2.2%
- Human Plasma Protein Stability % Remaining Avg [5]: 93.9%

Compound: CS(=O)(=O)c1ccc(-c2cccc(/C=C\c3ccoc3)n2)cc1 [Compound 35, 2-[(Z)-2-(furan-3-yl)ethenyl]-6-(4-methanesulfonylphenyl)pyr]
- fraction unbound [1]: 0.011
- COX1 10 minutes pge2/pge2d4 area ratio Avg. LLE [2, 11]: 1.089
- IC50 [2, 9]: 22.4 µM
- COX1 10 minutes pge2 area (counts) Avg. LLE [2, 8]: 0.724
- fraction unbound [3]: 0.079
- Human Plasma Protein Stability % Remaining Avg [5]: 97%

Compound: COc1cc(NCc2cccs2)nc(-c2ccc(S(C)(=O)=O)cc2)c1 [Compound 50]
- COX1 10 minutes pge2/pge2d4 area ratio Avg. LLE [2, 11]: 1.091
- IC50 [2, 9]: 32.3 µM
- COX1 10 minutes pge2 area (counts) Avg. LLE [2, 8]: 0.9785
- IC50 [2, 10]: 42 µM
- fraction unbound [3]: 0.031

Compound: CS(=O)(=O)c1ccc(-c2cccc(NCc3ccc(F)o3)n2)cc1 [Compound 23]
- COX1 10 minutes pge2/pge2d4 area ratio Avg. LLE [2, 11]: 3.122
- IC50 [2, 9]: 0.323 µM
- COX1 10 minutes pge2 area (counts) Avg. LLE [2, 8]: 3.085
- IC50 [2, 10]: 0.417 µM
- Human Plasma Protein Stability % Remaining Avg [5]: 97%

Compound: CS(=O)(=O)c1ccc(-c2nc(NCc3cccs3)cc3ccoc23)cc1 [Compound 2]
- IC50 [2]: 52 µM
- COX1 10 minutes pge2/pge2d4 area ratio Avg. LLE [2, 11]: −0.046
- COX1 10 minutes pge2 area (counts) Avg. LLE [2, 8]: −0.02512
- IC50 [2, 10]: 49.6 µM
- fraction unbound [3]: 0.004
- Human Plasma Protein Stability % Remaining Avg [5]: 99%

Compound: CS(=O)(=O)c1ccc(-c2cccc(OCc3cccs3)n2)cc1 [Compound 1, 2-(4-methanesulfonylphenyl)-6-[(thiophen-2-yl)methoxy]pyridine]
- efflux ratio [6]: 0.9
- Papp A→B [6]: 33.7 ×10⁻⁶ cm/s
- Papp B→A [6]: 29.9 ×10⁻⁶ cm/s
- COX1 10 minutes pge2/pge2d4 area ratio Avg. LLE [2, 11]: 1.251
- IC50 [2, 9]: 11.5 µM
- COX1 10 minutes pge2 area (counts) Avg. LLE [2, 8]: 1.136
- IC50 [2, 10]: 13.8 µM
- fraction unbound [3]: 0.004
- Human Plasma Protein Stability % Remaining Avg [5]: 94%
